# Test results from article PMC5448077, “Development of an orally available inhibitor of CLK1 for skipping a mutated dystrophin exon in Duchenne muscular dystrophy” (Scientific Reports, 2017).
# How the values were obtained:
# Test in all cases: biochemical
# [1] = target: CDK7/CycH/MAT1 (Homo sapiens, UniProt P50613)
# Protocol: (§1) These assays rely on the phosphorylation of small synthetic peptides developed for each kinase, and detect activity by changes in electrophoretic mobility (MSA assay) or by binding of a fluorescently labelled peptide to a large micro-particle and concomitant polarization increases (IMAP assay). Reaction conditions for each kinase are described in Supplementary Table S5. All kinase assays were carried out at Carna Biosciences (Kobe, Japan). The inhibitory map was constructed using Kinome Render[41]. Inhibitor (4×), substrate/ATP-Metal (4×), and kinase (2×) solutions were prepared with assay buffer (20 mM HEPES, 0.01% Triton X-100, 2 mM DTT, pH 7.5) and mixed in 384-well plates at room temperature for 1 or 5 h depending on the kinase. Reactions were stopped by the addition of termination buffer (QuickScout Screening Assist MSA; Carna Biosciences). The entire reaction mixture was then applied to a LabChip system (Perkin-Elmer, Waltham, MA, USA) and the product and substrate peptide peaks were separated and quantified, and then heights of product (P) and substrate (S) peptide peaks were calculated. The level of kinase activity was evaluated with the following equation: activity = P/(P + S).
# [2] = target: T1, TRKC (Homo sapiens, UniProt Q16288)
# T1 construct: gene NTRK3
# Protocol: as §1
# [3] = target: T2, MST4 (Homo sapiens, UniProt Q9P289)
# T2 construct: gene STK26
# Protocol: as §1
# [4] = target: HIPK1 (Homo sapiens, UniProt Q86Z02)
# Protocol: as §1
# [5] = target: INSR (Homo sapiens, UniProt P06213)
# Protocol: as §1
# [6] = target: DDR1 (Homo sapiens, UniProt Q08345)
# Protocol: as §1
# [7] = target: AKT3 (Homo sapiens, UniProt Q9Y243)
# Protocol: as §1
# [8] = target: T3, CRIK (Homo sapiens, UniProt O14578)
# T3 construct: gene CIT
# Protocol: as §1
# [9] = target: EPHA8 (Homo sapiens, UniProt P29322)
# Protocol: as §1
# [10] = target: KIT(V654A) (Homo sapiens, UniProt P10721, V654A)
# Protocol: as §1
# [11] = target: T4, CK1δ (Homo sapiens, UniProt P48730)
# T4 construct: gene CSNK1D
# Protocol: as §1
# [12] = target: T5, FAK (Homo sapiens, UniProt Q05397)
# T5 construct: gene PTK2
# Protocol: as §1
# [13] = target: IRAK1 (Homo sapiens, UniProt P51617)
# Protocol: as §1
# [14] = target: MARK2 (Homo sapiens, UniProt Q7KZI7)
# Protocol: as §1
# [15] = target: T6, PKACγ (Homo sapiens, UniProt P22612)
# T6 construct: gene PRKACG
# Protocol: as §1
# [16] = target: T7, PKCγ (Homo sapiens, UniProt P05129)
# T7 construct: gene PRKCG
# Protocol: as §1
# [17] = target: SLK (Homo sapiens, UniProt Q9H2G2)
# Protocol: as §1
# [18] = target: PIM3 (Homo sapiens, UniProt Q86V86)
# Protocol: as §1
# [19] = target: RET(M918T) (Homo sapiens, UniProt P07949, M918T)
# Protocol: as §1
# [20] = target: CSK (Homo sapiens, UniProt P41240)
# Protocol: as §1
# [21] = target: AKT1 (Homo sapiens, UniProt P31749)
# Protocol: as §1
# [22] = target: T8, LYNb (Homo sapiens, UniProt P07948)
# T8 construct: gene LYN; isoform b
# Protocol: as §1
# [23] = target: HCK (Homo sapiens, UniProt P08631)
# Protocol: as §1
# [24] = target: CDK4/CycD3 (Homo sapiens, UniProt P11802)
# Protocol: as §1
# [25] = target: HIPK3 (Homo sapiens, UniProt Q9H422)
# Protocol: as §1
# [26] = target: T9, MGC42105 (Homo sapiens, UniProt Q8IY84)
# T9 construct: gene NIM1K
# Protocol: as §1
# [27] = target: HIPK4 (Homo sapiens, UniProt Q8NE63)
# Protocol: as §1
# [28] = target: NEK7 (Homo sapiens, UniProt Q8TDX7)
# Protocol: as §1
# [29] = target: T10, CK1γ1 (Homo sapiens, UniProt Q9HCP0)
# T10 construct: gene CSNK1G1
# Protocol: as §1
# [30] = target: T11, LYNa (Homo sapiens, UniProt P07948)
# T11 construct: gene LYN; isoform a
# Protocol: as §1
# [31] = target: SPHK2 (Homo sapiens, UniProt Q9NRA0)
# Protocol: as §1
# CDK7/CycH/MAT1, sequence (P50613 whole entry): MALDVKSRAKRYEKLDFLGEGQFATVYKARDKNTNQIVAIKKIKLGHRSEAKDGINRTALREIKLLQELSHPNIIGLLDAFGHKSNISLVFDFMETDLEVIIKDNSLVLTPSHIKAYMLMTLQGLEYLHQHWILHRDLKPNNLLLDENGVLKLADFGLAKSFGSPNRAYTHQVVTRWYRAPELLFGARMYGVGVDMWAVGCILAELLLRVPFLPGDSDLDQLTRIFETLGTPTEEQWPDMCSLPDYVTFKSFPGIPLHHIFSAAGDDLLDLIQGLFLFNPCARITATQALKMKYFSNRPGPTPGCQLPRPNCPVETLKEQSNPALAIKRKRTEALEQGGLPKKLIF
# CDK7/CycH/MAT1, sequence (P51946 whole entry partner): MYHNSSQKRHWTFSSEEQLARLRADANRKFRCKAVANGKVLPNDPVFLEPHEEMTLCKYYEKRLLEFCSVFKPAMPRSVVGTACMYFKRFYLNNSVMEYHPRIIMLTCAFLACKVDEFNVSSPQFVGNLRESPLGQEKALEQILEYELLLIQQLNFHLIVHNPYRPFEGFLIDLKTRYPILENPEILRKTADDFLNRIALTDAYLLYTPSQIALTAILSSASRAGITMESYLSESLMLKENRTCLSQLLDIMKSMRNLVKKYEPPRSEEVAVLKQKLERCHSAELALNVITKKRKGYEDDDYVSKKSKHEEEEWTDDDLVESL
# CDK7/CycH/MAT1, sequence (P51948 whole entry partner): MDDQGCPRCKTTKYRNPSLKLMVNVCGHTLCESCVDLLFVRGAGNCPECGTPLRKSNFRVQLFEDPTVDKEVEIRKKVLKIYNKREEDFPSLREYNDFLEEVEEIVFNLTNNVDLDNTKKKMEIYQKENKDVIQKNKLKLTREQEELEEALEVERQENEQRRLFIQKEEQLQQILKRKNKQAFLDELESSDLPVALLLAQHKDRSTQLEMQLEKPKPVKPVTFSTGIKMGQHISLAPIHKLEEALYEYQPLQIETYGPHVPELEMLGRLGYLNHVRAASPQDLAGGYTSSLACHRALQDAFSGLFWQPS
# RET(M918T), sequence (P07949 whole entry M918T): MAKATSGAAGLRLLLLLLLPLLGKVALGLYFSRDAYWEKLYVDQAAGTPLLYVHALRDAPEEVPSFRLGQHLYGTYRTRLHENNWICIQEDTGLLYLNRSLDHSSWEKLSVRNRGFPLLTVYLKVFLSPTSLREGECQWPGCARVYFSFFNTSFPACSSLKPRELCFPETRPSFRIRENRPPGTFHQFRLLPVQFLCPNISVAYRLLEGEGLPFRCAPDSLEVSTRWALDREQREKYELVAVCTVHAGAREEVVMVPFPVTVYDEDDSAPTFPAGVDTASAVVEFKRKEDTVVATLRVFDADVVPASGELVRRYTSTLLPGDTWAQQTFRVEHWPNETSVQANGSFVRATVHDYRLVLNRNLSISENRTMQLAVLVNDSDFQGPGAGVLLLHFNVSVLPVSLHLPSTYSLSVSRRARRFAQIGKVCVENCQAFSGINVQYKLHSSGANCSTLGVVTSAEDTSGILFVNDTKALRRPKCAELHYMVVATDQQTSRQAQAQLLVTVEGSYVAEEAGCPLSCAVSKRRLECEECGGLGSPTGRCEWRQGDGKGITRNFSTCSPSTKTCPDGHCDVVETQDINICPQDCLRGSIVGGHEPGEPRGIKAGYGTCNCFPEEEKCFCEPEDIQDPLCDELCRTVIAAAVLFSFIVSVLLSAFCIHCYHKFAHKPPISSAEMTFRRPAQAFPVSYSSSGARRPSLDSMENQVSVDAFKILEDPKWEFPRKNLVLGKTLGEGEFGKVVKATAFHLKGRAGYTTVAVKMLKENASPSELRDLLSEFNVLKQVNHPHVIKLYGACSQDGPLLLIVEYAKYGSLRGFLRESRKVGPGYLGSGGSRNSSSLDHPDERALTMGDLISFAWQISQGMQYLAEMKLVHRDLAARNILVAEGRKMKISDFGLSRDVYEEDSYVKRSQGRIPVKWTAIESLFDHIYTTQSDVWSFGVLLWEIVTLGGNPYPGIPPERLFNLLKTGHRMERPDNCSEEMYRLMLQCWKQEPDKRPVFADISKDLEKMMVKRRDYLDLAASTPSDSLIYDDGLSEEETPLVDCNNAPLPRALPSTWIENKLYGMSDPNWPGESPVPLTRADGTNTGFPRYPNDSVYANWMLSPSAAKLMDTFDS
# NEK7, sequence (Q8TDX7 whole entry): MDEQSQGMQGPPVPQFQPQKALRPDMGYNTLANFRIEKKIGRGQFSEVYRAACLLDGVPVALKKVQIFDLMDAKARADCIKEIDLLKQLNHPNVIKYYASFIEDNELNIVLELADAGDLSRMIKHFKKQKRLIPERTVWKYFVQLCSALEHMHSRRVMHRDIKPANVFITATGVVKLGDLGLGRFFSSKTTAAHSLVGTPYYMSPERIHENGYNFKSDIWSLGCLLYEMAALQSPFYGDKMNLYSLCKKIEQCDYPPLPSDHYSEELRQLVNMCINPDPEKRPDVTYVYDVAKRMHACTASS
# T9 sequence (Q8IY84 whole entry): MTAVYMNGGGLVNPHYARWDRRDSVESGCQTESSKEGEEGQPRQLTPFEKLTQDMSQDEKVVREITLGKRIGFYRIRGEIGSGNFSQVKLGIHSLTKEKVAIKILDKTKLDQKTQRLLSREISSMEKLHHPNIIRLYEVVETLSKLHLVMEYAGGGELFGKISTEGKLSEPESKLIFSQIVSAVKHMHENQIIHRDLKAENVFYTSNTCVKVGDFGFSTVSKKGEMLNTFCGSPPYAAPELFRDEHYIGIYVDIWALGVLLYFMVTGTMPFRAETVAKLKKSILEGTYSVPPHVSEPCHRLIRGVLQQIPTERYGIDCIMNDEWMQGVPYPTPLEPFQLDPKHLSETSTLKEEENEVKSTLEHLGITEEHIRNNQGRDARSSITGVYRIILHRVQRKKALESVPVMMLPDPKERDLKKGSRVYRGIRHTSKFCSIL
# T1 sequence (Q16288 whole entry): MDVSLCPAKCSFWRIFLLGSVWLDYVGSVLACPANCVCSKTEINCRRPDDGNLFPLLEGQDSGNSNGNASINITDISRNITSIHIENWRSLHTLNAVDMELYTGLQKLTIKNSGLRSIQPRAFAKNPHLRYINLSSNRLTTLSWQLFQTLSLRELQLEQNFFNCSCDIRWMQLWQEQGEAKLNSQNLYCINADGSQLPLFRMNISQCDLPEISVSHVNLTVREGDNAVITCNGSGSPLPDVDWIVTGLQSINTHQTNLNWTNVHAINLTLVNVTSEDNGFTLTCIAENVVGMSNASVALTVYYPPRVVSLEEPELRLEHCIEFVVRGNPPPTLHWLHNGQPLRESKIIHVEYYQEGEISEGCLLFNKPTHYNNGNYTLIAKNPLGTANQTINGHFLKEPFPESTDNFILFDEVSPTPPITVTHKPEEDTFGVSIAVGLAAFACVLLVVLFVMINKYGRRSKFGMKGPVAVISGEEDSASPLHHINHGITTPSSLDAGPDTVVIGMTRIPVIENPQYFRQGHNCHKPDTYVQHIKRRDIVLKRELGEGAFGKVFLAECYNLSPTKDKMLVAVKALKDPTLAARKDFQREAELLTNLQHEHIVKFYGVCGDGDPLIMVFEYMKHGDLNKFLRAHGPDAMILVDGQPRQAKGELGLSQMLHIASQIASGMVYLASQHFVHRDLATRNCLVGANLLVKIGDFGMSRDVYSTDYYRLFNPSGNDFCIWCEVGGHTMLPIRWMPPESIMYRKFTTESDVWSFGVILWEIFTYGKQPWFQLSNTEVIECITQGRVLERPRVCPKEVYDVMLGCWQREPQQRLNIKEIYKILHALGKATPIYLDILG
# KIT(V654A), sequence (P10721 whole entry V654A): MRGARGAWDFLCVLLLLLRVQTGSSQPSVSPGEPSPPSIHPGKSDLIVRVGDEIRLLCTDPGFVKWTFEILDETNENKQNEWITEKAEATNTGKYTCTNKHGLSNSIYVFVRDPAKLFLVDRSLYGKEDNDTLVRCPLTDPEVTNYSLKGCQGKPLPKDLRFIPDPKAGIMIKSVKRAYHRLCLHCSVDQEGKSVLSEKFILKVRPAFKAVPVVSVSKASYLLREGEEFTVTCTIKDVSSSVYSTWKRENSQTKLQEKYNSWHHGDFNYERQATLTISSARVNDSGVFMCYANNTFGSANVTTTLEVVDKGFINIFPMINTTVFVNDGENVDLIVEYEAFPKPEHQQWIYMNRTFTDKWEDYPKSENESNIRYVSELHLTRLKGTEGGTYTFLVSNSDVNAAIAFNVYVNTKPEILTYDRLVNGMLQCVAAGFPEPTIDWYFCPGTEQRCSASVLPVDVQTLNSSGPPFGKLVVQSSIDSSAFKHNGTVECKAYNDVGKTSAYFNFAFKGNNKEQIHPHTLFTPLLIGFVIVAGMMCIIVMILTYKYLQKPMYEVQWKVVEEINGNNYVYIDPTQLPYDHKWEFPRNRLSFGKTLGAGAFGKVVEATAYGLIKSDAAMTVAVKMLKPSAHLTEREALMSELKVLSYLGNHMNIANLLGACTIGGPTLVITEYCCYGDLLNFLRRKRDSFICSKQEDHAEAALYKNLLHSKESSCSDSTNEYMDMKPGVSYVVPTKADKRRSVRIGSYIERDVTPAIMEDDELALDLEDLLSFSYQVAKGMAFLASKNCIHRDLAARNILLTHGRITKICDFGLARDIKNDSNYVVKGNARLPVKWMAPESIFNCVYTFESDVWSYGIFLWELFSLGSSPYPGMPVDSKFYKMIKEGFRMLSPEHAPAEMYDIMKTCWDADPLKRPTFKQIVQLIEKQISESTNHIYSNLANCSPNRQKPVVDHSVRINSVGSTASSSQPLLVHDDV
compound,measurement,setting,value
"c1cc(-c2ccc3[nH]ncc3c2)ccn1 [TG693, 5-(4-pyridinyl)-1H-indazole]",inhibition at 1 µM,[1],6.2%
same,inhibition at 1 µM,[2],7.7%
same,inhibition at 1 µM,[3],4.1%
same,inhibition at 1 µM,[4],-3.5%
same,inhibition at 1 µM,[5],-5.9%
same,inhibition at 1 µM,[6],-6%
same,inhibition at 1 µM,[7],-4.6%
same,inhibition at 1 µM,[8],16.9%
same,inhibition at 1 µM,[9],7.3%
same,inhibition at 1 µM,[10],-1.5%
same,inhibition at 1 µM,[11],21.3%
same,inhibition at 1 µM,[12],3.6%
same,inhibition at 1 µM,[13],4.2%
same,inhibition at 1 µM,[14],20.3%
same,inhibition at 1 µM,[15],1.5%
same,inhibition at 1 µM,[16],-11.4%
same,inhibition at 1 µM,[17],1.2%
same,inhibition at 1 µM,[18],6.6%
same,inhibition at 1 µM,[19],-2.6%
same,inhibition at 1 µM,[20],-1.2%
same,inhibition at 1 µM,[21],-1.3%
same,inhibition at 1 µM,[22],0.8%
same,inhibition at 1 µM,[23],-3%
same,inhibition at 1 µM,[24],5.4%
same,inhibition at 1 µM,[25],-0.7%
same,inhibition at 1 µM,[26],-22.2%
same,inhibition at 1 µM,[27],7.6%
same,inhibition at 1 µM,[28],-9%
same,inhibition at 1 µM,[29],5%
same,inhibition at 1 µM,[30],0.1%
same,inhibition at 1 µM,[31],4.1%
